Measured values reported in ChEMBL document CHEMBL3745622 (Bioorg Med Chem, 2016).

Legend:
[1] = biological target: T1, Tyrosinase (Agaricus bisporus, UniProt O42713)
T1 sequence (O42713 whole entry): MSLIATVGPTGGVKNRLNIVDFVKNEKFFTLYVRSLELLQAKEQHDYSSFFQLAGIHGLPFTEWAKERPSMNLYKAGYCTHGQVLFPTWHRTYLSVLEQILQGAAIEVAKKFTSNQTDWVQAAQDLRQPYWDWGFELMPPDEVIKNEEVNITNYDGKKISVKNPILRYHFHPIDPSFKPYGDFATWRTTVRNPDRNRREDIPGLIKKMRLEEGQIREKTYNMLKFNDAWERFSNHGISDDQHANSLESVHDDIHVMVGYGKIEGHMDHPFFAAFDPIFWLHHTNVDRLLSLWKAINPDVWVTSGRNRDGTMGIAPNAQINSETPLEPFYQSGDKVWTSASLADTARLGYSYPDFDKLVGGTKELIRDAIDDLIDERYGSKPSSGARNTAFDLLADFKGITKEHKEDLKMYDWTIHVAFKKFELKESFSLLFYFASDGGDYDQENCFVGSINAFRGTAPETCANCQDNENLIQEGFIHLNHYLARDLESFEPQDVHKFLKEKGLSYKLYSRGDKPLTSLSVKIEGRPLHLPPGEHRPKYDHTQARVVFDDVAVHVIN
Description: (§1) Inhibition of monophenolase activity of mushroom tyrosinase using L-tyrosine as substrate preincubated with substrate for 10 mins followed by protein addition measured after 15 mins by spectrophotometric analysis

[2] = biological target: T1, Tyrosinase; remark: listed apart in the source
Description: (§2) Inhibition of diphenolase activity of mushroom tyrosinase using L-DOPA as substrate preincubated with substrate for 10 mins followed by protein addition measured after 15 mins by spectrophotometric analysis

[3] = biological target: T1, Tyrosinase; remark: listed apart in the source
Description: Competitive inhibition of diphenolase activity of mushroom tyrosinase using L-DOPA as substrate preincubated for 5 to 60 mins by Lineweaver-Burk and Dixon plot analysis

[4] = biological target: T1, Tyrosinase; remark: listed apart in the source
[5] = biological target: T2, Tyrosinase (Agaricus bisporus) (UniProt O42713)
T2 sequence (whole entry): T1 sequence (O42713 whole entry)
Description: as §2

[6] = biological target: T2, Tyrosinase (Agaricus bisporus); remark: listed apart in the source
Description: as §1

[7] = biological target: T1, Tyrosinase; assay: Time dependent inhibition of monophenolase activity of mushroom tyrosinase using L-tyrosine as substrate measured every 30 secs by Morrison and Walsh plot analysis; conditions: read-out: Ki(app)
[8] = system: B16; assay: Potency index, ratio of kojic acid IC50 to compound IC50 for alpha-MSH-stimulated melanin production in mouse B16 cells; format: functional
[9] = system: B16; assay: cells; conditions: Mus musculus, B16, 72 h
Description: Inhibition of alpha-MSH-stimulated melanin production in mouse B16 cells after 72 hrs by microplate reader analysis

[10] = in vitro; conditions: mouse, B16 cells
Description: Cytotoxicity against mouse B16 cells assessed as cell viability after 72 hrs by MTT assay

Row | Structure (SMILES) | IC50 [1] [µM] | IC50 [2] [µM] | Ki [3] [µM] | Ki [4] [µM] | inhibition [5] | inhibition [6] | Ki [7] [µM] | Ratio IC50 [8] | IC50 [9] [µM] | CC50 at 72 h [10] [µM]
1 | CC(C)=CCC/C(C)=C/Cc1cc(C2Oc3cc(O)c(C)c(O)c3C(=O)C2=O)ccc1O (stereo unspecified) | > 200 | > 200 |  |  |  |  |  |  |  | 
2 | COc1cc(O)ccc1C1COc2cc3c(c(O)c2C1=O)C=CC(C)(C)O3 (stereo unspecified) | > 200 | 146 | 56.7 |  |  |  |  |  |  | 
3 | COc1c(C2COc3cc(O)c(CC=C(C)C)c(O)c3C2=O)ccc(O)c1CC=C(C)C (stereo unspecified) | > 200 | > 200 |  |  |  |  |  |  |  | 
4 | CC(C)=CCC/C(C)=C/Cc1c(O)ccc(C2(O)COc3cc(O)cc(O)c3C2=O)c1O (stereo unspecified) | 18.4 | 144 | 81.4 | 7.5 | Dose-dependent effect | Dose-dependent effect |  |  |  | 
5 | COc1c2c(cc3c1C[C@H](c1ccc(O)cc1O)CO3)OC(C)(C)C=C2 | 0.03 | 0.5 | 0.13 | 0.019 | Dose-dependent effect | Dose-dependent effect | 0.00148 | 200 | 13 | 104
6 | CC(C)=CCC/C(C)=C/Cc1c(O)ccc(C2COc3cc(O)cc(O)c3C2=O)c1O (stereo unspecified) | 2.9 | 128 | 76.4 | 1.8 | Dose-dependent effect | Dose-dependent effect | 0.151 |  | 42.3 | 241
7 | CC(C)=CCC/C(C)=C/Cc1c(O)ccc(-c2coc3cc(O)cc(O)c3c2=O)c1O | 92 | > 200 |  | 49.7 | Dose-dependent effect | Dose-dependent effect |  |  |  | 
8 | C/C(=C\Cc1ccc(-c2coc3cc(O)cc(O)c3c2=O)cc1O)CCCC(C)(C)O | > 200 | > 200 |  |  |  |  |  |  |  | 
9 | CC(C)=CCC/C(C)=C/COc1ccc(-c2coc3cc(O)cc(O)c3c2=O)cc1O | > 200 | > 200 |  |  |  |  |  |  |  | 
10 | CC(C)=CCC/C(C)=C/Cc1cc(C2CC(=O)c3c(cc(O)c(C)c3O)O2)ccc1O (stereo unspecified) | > 200 | > 200 |  |  |  |  |  |  |  | 
11 | CC(C)=CCCCC1(C)C=Cc2cc(-c3coc4cc(O)cc(O)c4c3=O)ccc2O1 (stereo unspecified) | > 200 | > 200 |  |  |  |  |  |  |  | 
12 | CC(C)=CCc1c(O)ccc(C2COc3cc(O)c(CC=C(C)C)c(O)c3C2=O)c1O (stereo unspecified) | > 200 | > 200 |  |  |  |  |  |  |  | 
13 | COc1cc(C2COc3cc4c(c(OC)c3C2)C=CC(C)(C)O4)c(O)cc1O (stereo unspecified) | > 200 | > 200 |  |  |  |  |  |  |  | 
14 | CC(C)=CCC/C(C)=C/Cc1cc(-c2coc3cc(O)cc(O)c3c2=O)ccc1O | > 200 | > 200 |  |  |  |  |  |  |  | 
